Results published in patent US20050228016A1, “TETRAHYDROQUINOLINES FOR MODULATING THE EXPRESSION OF EXOGENOUS GENES VIA AN ECDYSONE RECEPTOR COMPLEX” (priority 2002, published 2005).

How the values were obtained:
[1] = test system: GAL4 DBD-CfEcR(DEF)/VP16AD-MmRXRE; details: CHO 13B3 clone, 48 h, average of two wells
Outline: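 CHO 13B3 clone stably expressing GAL4 DBD-CfEcR(DEF) and VP16AD-MmRXRE with GAL4 RE-luciferase reporter; ligands from DMSO stocks diluted 300-fold. Luciferase read 48 h after treatment; duplicate wells averaged, fold induction = RLU ligand-treated / RLU DMSO-treated.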

[2] = target: T1, GAL4AaEcR-DEF/VP16HsRXRβ-EF (Aedes aegypti, UniProt P49880); experiment: Transactivation reporter assay, AaEcR based switch (1.4) in NIH3T3 cells; assay type: cell-based; details: mammalian cells; FIGS. 2-5
T1 construct: expressed in transfected cells; host or cells: mouse NIH3T3 cells
T1 sequence (P49880 405-776 limits assumed): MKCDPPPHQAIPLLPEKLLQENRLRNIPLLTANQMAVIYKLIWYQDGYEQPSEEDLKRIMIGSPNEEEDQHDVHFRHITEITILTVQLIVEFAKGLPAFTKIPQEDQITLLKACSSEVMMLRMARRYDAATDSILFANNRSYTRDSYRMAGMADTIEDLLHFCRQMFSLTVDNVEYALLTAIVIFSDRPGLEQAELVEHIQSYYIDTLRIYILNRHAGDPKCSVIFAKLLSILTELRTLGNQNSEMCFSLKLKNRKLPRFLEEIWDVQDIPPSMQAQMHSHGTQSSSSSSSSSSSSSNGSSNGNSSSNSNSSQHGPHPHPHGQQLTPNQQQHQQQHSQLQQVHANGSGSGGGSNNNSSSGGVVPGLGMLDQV
T1 sequence (P28702 299-533 partner limits assumed): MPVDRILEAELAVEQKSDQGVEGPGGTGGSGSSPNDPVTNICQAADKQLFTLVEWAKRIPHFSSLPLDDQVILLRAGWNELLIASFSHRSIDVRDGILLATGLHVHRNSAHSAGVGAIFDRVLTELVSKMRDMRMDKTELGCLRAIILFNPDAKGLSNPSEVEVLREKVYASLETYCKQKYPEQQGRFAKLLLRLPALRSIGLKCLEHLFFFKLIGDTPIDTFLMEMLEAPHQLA
Experimental: Total relative light units (RLU) are shown.
Twenty μl of lysate were assayed.

Gal4DBD/AaEcR (DEF) = target: T2, Gal4DBD/AaEcR (DEF) (Aedes aegypti, UniProt P49880); experiment: cell-based; assay type: cell-based; details: 33 μM; 3T3 cells; 48 h; average of two wells
T2 construct: The wildtype D, E, and F domains from mosquito Aedes aegypti EcR; expressed in transfected cells; host or cells: 3T3 cells
Outline: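 Mouse 3T3 cells transiently co-transfected with Gal4DBD/AaEcR (DEF) and pFRLuc (5× GAL4 response element, firefly luciferase reporter). Ligand added in serum medium 4 h after transfection; single-dose testing at 33 μM.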

C[C@H]1C[C@H](Nc2ccc(F)cc2)c2cc(F)ccc2N1C(=O)c1ccc(F)c(C(F)(F)F)c1 (relative stereo) [Compound I-5]
Fold Induction Average, 13B3V1 Assay 33 μM [1]: 1 fold | Activity on AaEcR based switches [2]: very active | Fold Induction Average, AA_3T3V1 Assay 33 μM (Gal4DBD/AaEcR (DEF)): 366 fold
